Measured values: US20240409746A1, “AZO IRON COMPLEX DYE, INK COMPOSITION CONTAINING SAME, AND METHOD FOR PRODUCING AZO IRON COMPLEX DYE” (ORIENT CHEMICAL INDUSTRIES CO., LTD., priority 2021, published 2024)

Assays:
Assay type in all cases: physicochemical
[1] = Electrical conductivity measurement; details: 6% solution in methyl ethyl ketone
Text: The azo iron complex dye of the present invention can be suitably used in the ink composition for a CIJ printer. Herein, the electrical conductivity K of the azo iron complex dye is preferably 300-2200 μS/cm, and more preferably 600-2000 μS/cm. As long as the electrical conductivity is within this range, the charge of the ink composition for a CIJ printer containing the azo iron complex dye can be stably and freely controlled, so that the ejection stability of the ink composition can be improved. Note that the electrical conductivity K is measured by inserting and immersing an electrode of an electrical conductivity meter in a 6 mass % methyl ethyl ketone solution of the azo iron complex dye.
A 6% solution of the azo iron complex dye A-1 in methyl ethyl ketone was prepared and measured using an electrical conductivity meter (available from Eutech Instruments Pte, Ltd.; trade name CyberScan CON100). As a result, the electrical conductivity K was 1530 μS/cm. Furthermore, a 6% solution of the azo iron complex dye A-1 in methyl ethyl ketone was prepared and measured using a conductivity meter (available from Knick Co., Ltd.; trade name Conducell 4USF-PG120). As a result, the electrical conductivity K was […].

[2] = Solubility evaluation (maximum concentration with no insoluble substances on the membrane filter); details: for Maximum concentration (%) Ethanol / Maximum concentration (%) Methyl ethyl ketone: tested at 5%, 10%, 15% and 20%, ultrasonically dispersed 10 minutes, 1 μm PTFE membrane filter
Text: (§1) Then the azo iron complex dyes solutions were filtered through a membrane filter (pore size 1 μm, PTFE) under reduced pressure, and the maximum concentrations of the azo iron complex dyes were defined as the concentrations at which it was confirmed that there were no insoluble substances on the membrane filter. Then the hue of the methyl ethyl ketone solution with the azo iron complex dyes concentrations of 5% was visually observed.

[3] = Visual observation of hue of 5% solution of the azo iron complex dye; details: for Hue of 5% methyl ethyl ketone solution with azo iron complex dye: 5% in methyl ethyl ketone, visually observed
Protocol: A solution of the azo iron complex dye A-1 in methyl ethyl ketone was prepared at a concentration of 10 mg/1000 ml (10 ppm). The absorbance of this solution was measured using an ultraviolet-visible spectrophotometer (available from Shimadzu Corporation; trade name UV-1700).
as §1

[4] = Dissolution stability of dye solution on standing

SMILES | Electrical conductivity K ([1]; CyberScan CON100) [μS/cm] | Maximum concentration (%) Ethanol [2] [%] | Solubility in both methyl ethyl ketone and ethanol (in words) [2] | Maximum concentration (%) Methyl ethyl ketone [2] [%] | Hue of 5% methyl ethyl ketone solution with azo iron complex dye [3] | Color of solution adjusted to a concentration of 5% [3] | Electrical conductivity K immediately after dissolution ([1]; immediately after dissolution) [μS/cm] | Dissolution stability, left overnight ([4]; 5% solution, left overnight (8 hours)) | Dissolution stability in ethanol ([4]; ethanol solution allowed to stand for 10 minutes)
O=[N+]([O-])c1ccc2c(c1)[O][Fe]1([O]c3cc([N+](=O)[O-])ccc3N=Nc3c(ccc4ccccc34)[O]1)[O]c1ccc3ccccc3c1N=N2 (centres unmarked) [B-1] | 1450 | 5 | good solubility | 10 | reddish brown hue | dark brown color |  |  | 
CCCCN(CCCC)c1ccc2c(c1)[O][Fe]1([O]c3cc(N(CCCC)CCCC)ccc3N=Nc3cc(C)c(N=Nc4ccc(C#N)cc4)cc3[O]1)[O]c1cc(N=Nc3ccc(C#N)cc3)c(C)cc1N=N2 (centres unmarked) [B-2] |  | <5 | low solubility | 5 | black color within a practical range | sufficient black color | 165 | precipitation was observed | precipitate was confirmed
